Experimental data as given in US4867973A, “Antibody-therapeutic agent conjugates” (Cytogen Corporation, priority 1984, dated 1989).
Ends that are not written are not given here. Peptide text beside a SMILES is read from it. * marks the point of attachment. AMC = Cc1cc(=O)oc2cc(N*)ccc12; Boc = CC(C)(C)OC(=O)*

How the values were obtained:
Type in all cases: biochemical
trypsin [1] = test: Fluorescence assay of AMC release from peptide linker by trypsin; conditions: for Cleavage Rates, Trypsin: trypsin 0.1 ug/ml, peptide 5 uM
Experimental: (§1) The rates of cleavage for the peptide linker were measured by fluorescence quenching using a Perkin Elmer 650-10S fluorescence spectrometer (Perkin-Elmer Corporation, Norwalk, Conn.). The excitation and emission wavelengths were 380 nm and 460 nm, respectively and the temperature was maintained at 25° C. with a Lauda k-2/R circulating water bath (Brinkmann Instruments, Westbury, N.Y.).
(§2) The initial concentrations of Gly-Gly-Arg-AMC were determined by optical density, Σ^1M325 =16,000. The solutions were adjusted to 1 uM concentrations. One ml of the 1 uM solution in PBS, pH 7.4 was placed in a cuvette. The appropriate amounts of enzyme (1 ug/ml trypsin or 10 ug/ml urokinase) was then added at room temperature with stirring using a motor-driven syringe and the reaction kinetics were followed for several minutes. The fluorescence intensity of a known concentration of free AMC was established and used as a baseline to determine the change in units per nM/minute of free AMC in this fluorescence assay system.
(§3) In another experiment, the Gly-Gly-Arg-AMC concentration was 100 uM and the trypsin used at 100 ug/ml. In another embodiment of the present invention, the Gly-Gly-Arg-AMC was conjugated to oxidized dextran which can serve as a spacer as described in Section 5.4.3 (10,000 molecular weight) (Pharmacia Fine Chemicals, Piscataway, N.J.) by the methods of the present invention using a molar ratio of Gly-Gly-Arg-AMC to dextran of 58:1. Dextran-Gly-Gly-Arg-AMC was separated with a 6.5 ml Sephadex® G-25 column (Pharmacia Fine Chemicals, Piscataway, N.J.).
(§4) Peptide sequences that are analogs of complement components were cleaved by trypsin (0.1 ug/ml), urokinase (0.1 ug/ml), plasmin (1 ug/ml) and purified complement components C4,2 and C1s (40 ug/ml). The data in Table V compare the cleavage rates (nM/minute) of these sequences. The fluorescence assay described in Section 8 for cleavage of Gly-Gly-Arg-AMC was used here. Complement components were purified and assayed by the method of Tack and Prahl (Biochem., 1976, 15:4513-4521).

urokinase [2] = molecular target: T1, urokinase (Homo sapiens, UniProt P00749); test: Fluorescence assay of AMC release from peptide linker by urokinase; conditions: urokinase 0.1 ug/ml; peptide 5 uM
Experimental: as §1, §2, §3, §4

urokinase [3] = molecular target: T1, urokinase; test: Release of 125I-Tyr from radiolabeled peptide by urokinase (agarose gel electrophoresis or TLC); conditions: urokinase 10 ug/ml; substrate 0.1 uM; 125I-Tyr release
Experimental: (§5) For the purposes of the present example, the tetrapeptide Glycine-Glycine-Arginine-Tyrosine was radiolabeled at the amino acid residue tyrosine with 125 Iodine (125 I) (Greenwood et al. 1963, Biochem. J. 88: 114-120). This radiolabeled compound is hereinafter referred to as Gly-Gly-Arg-Tyr* (wherein the * denotes ^125 I).
(§6) The peptide Gly-Gly-Arg-Tyr* was assayed for the release of the 125I labeled tyrosine residue by agarose gel electrophoresis or thin-layer chromatography (TLC, Sono and Asakura, 1974, Biochem 13:4386-4394). Briefly, appropriate amounts of enzyme were added to a reaction tube containing 0.1 uM Gly-Gly-Arg-Tyr in PBS, pH 7.4. The mixture was incubated at 37° C. for 30 minutes. Three ul of this reaction mixture were then applied to an agarose gel (1%) and run at high voltage (120 V/cm) in Barbitol Buffer, 0.025 M sodium diethylbarbituate HCl buffer, pH 8.6. Three ul of bromophenol blue solution was used as a marker to determine the end of the run. The agarose gel was then cut into sections and counted in a LKB 1271 gamma counter (LKB Instruments, Gaithersburg, Md.) to determine if the Tyr remained at the origin or migrated through the gel. Alternatively, samples were separated and identified by TLC as described supra. […] The plate was dried and divided into ten sections which were counted in a gamma counter. […]

trypsin [4] = test: Release of 125I-Tyr from radiolabeled peptide by trypsin (agarose gel electrophoresis or TLC); conditions: trypsin 1 ug/ml; substrate 0.1 uM; 125I-Tyr release
Experimental: as §5, §6

[5] = molecular target: T2, purified complement component C4,2 (Homo sapiens, UniProt P06681); test: Fluorescence assay of AMC release by purified complement component C4,2; conditions: 40 ug/ml enzyme; peptide 5 uM
T2 construct: from tissue
Experimental: as §4

[6] = molecular target: T3, purified complement component C1s (Homo sapiens, UniProt P09871); test: Fluorescence assay of AMC release by purified complement component C1s; conditions: 10 ug/ml enzyme; peptide 5 uM
T3 construct: from tissue
T3 sequence (P09871 16-688): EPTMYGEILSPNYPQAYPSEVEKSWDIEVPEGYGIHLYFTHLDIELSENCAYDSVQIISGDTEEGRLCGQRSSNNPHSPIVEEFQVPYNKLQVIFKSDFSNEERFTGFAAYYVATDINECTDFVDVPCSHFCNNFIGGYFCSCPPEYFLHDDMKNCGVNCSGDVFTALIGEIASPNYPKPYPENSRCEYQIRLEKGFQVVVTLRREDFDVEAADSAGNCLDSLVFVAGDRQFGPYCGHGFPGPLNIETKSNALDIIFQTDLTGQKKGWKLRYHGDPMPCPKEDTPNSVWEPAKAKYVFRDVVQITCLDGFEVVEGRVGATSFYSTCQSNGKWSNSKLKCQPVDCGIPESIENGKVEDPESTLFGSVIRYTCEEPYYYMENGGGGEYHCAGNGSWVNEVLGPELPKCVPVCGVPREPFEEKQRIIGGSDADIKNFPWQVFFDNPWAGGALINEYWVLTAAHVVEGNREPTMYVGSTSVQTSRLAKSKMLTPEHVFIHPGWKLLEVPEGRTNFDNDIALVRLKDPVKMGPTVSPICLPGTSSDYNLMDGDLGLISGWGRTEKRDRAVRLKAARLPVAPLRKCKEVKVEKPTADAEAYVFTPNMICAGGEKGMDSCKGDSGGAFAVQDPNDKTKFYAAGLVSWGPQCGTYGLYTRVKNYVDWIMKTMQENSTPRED
Text: The data in Table V compare the cleavage rates (nM/minute) of these sequences. The fluorescence assay described in Section 8 for cleavage of Gly-Gly-Arg-AMC was used here. Complement components were purified and assayed by the method of Tack and Prahl (Biochem., 1976, 15:4513-4521).

plasmin = plasmin (Homo sapiens, UniProt P00747); test: Fluorescence assay of AMC release by plasmin; conditions: plasmin 1 ug/ml; peptide 5 uM
Experimental: as §4

plasmin, sequence (P00747 581-810 limits assumed, species assumed): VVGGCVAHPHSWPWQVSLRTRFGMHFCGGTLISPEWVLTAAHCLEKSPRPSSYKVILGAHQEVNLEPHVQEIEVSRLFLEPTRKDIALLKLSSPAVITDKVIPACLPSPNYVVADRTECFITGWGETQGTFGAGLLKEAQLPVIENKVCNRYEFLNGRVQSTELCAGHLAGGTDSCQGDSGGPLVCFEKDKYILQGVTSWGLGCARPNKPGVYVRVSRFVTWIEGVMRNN
plasmin, sequence (P00747 97-580 partner limits assumed, species assumed): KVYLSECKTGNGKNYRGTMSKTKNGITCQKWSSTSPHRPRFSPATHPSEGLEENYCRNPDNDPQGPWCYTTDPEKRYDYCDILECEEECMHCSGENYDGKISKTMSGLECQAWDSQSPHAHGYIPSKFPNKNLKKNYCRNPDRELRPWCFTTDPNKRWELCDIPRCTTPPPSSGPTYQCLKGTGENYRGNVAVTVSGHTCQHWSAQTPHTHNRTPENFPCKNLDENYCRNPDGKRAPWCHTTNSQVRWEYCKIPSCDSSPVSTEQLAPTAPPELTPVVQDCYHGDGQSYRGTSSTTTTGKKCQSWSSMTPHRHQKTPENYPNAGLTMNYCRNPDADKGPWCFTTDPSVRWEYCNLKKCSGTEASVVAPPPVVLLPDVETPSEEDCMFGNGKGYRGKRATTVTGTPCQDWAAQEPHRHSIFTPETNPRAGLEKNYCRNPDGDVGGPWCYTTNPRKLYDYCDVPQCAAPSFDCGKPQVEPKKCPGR
T2 sequence (P06681 244-752 limits assumed): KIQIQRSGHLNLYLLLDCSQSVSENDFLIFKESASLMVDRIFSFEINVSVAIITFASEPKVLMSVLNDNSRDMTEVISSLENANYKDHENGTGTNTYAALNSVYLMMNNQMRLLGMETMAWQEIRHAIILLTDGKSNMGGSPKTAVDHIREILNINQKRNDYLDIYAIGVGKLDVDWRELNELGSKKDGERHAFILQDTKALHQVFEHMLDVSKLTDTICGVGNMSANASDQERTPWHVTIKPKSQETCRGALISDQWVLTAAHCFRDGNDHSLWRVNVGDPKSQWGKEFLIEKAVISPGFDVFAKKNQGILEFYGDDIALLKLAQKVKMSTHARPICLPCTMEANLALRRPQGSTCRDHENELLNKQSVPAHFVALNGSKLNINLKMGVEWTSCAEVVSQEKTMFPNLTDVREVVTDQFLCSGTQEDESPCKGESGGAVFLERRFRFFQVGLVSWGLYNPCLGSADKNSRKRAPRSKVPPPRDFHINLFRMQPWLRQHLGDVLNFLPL
T2 sequence (P0C0L4 20-675 partner limits assumed): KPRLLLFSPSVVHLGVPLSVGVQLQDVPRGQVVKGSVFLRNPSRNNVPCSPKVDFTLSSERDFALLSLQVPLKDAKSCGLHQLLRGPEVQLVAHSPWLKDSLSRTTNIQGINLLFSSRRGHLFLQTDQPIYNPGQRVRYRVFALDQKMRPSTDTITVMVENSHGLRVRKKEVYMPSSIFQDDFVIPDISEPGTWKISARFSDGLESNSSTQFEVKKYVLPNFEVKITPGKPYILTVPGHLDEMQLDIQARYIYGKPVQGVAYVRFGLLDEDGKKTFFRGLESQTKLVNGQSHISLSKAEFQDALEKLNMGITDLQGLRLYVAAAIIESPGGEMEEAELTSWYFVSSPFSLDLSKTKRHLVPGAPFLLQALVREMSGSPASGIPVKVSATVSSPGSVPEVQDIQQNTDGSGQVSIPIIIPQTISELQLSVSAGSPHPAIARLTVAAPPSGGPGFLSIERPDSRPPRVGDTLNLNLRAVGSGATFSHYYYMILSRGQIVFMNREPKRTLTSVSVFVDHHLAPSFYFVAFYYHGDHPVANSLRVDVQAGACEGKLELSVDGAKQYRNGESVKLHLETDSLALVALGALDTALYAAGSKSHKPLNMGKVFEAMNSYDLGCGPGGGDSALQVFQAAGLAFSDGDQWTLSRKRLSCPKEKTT
T2 sequence (P0C0L4 757-1446 partner limits assumed): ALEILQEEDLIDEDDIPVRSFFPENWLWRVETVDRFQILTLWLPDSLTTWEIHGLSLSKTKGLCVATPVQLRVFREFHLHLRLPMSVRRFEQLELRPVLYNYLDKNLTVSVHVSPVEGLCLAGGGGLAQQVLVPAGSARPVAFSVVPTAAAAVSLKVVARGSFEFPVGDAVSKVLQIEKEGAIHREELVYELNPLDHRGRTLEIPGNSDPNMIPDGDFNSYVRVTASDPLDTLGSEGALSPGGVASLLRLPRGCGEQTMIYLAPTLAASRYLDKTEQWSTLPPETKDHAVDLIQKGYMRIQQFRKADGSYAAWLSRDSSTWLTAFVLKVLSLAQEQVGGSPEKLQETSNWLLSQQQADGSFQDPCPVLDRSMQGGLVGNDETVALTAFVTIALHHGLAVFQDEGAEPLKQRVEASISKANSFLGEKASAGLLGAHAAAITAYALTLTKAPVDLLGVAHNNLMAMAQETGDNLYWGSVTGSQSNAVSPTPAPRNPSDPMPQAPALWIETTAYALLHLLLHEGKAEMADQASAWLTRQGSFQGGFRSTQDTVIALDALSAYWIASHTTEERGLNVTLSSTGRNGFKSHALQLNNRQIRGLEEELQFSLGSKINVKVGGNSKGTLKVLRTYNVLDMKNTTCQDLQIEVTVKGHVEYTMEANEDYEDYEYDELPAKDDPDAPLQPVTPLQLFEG
T2 sequence (P0C0L4 1454-1744 partner limits assumed): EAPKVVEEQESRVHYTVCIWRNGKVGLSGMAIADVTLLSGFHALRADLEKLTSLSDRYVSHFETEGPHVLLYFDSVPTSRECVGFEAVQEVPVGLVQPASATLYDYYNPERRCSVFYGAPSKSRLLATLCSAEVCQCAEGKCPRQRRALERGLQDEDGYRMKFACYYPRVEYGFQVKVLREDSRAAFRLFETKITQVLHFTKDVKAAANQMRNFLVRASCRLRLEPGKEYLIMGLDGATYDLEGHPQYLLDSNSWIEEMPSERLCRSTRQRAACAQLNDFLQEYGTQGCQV

Row | Cleavage Rates, Urokinase (urokinase [2]) [nM/min] | Compound | Cleavage Rates, Trypsin (trypsin [1]) [nM/min] | also measured
1 | 0 | Cc1cc(=O)oc2cc(NC(=O)[C@H](CCCNC(=N)N)NC(=O)[C@@H]3CCCN3C(=O)[C@@H](NC(=O)OC(C)(C)C)C(C)C)ccc12 [Boc-Val-Pro-Arg-AMC] (Boc-Val-Pro-Arg-{AMC}) | 3.8 | 
2 | 2.8 | Cc1cc(=O)oc2cc(NC(=O)[C@H](CCCNC(=N)N)NC(=O)CNC(=O)[C@@H](NC(=O)OC(C)(C)C)C(C)C)ccc12 [Boc-Val-Gly-Arg-AMC] (Boc-Val-Gly-Arg-{AMC}) | 720 | 
3 | 35 | Cc1cc(=O)oc2cc(NC(=O)[C@H](CCCNC(=N)N)NC(=O)CNC(=O)[C@@H](N)CCC(=O)O)ccc12 [Glu-Gly-Arg-AMC] (H-Glu-Gly-Arg-{AMC}) | 140 | 
4 | 0 | Cc1cc(=O)oc2cc(NC(=O)[C@H](CCCNC(=N)N)NC(=O)[C@H](Cc3ccccc3)NC(=O)[C@@H]3CCCN3)ccc12 [Pro-Phe-Arg-AMC] (H-Pro-Phe-Arg-{AMC}) | 0 | 
5 | 27 | Cc1cc(=O)oc2cc(NC(=O)[C@H](CCCNC(=N)N)NC(=O)CNC(=O)CN)ccc12 [Gly--Gly--Arg--AMC, Gly-Gly-Arg-AMC] | 450 | Cleavage Rates, complement component (column head drawing 17) [5]: 0.9 to 1.2 nM/min; Cleavage Rates Released Group, Trypsin (trypsin [1]; trypsin 100 ug/ml, substrate 100 uM): 20,000 nM/min.; Cleavage Rates, complement component (column head drawing 18) [6]: 0.9 to 1.2 nM/min; Cleavage Rates, Plasmin (plasmin): 0.005 nM/min

Continued, compound first:

Row | Compound | Cleavage Rates, Urokinase (urokinase [2]) [nM/min] | Cleavage Rates, Trypsin (trypsin [1]) [nM/min] | also measured
6 | Cc1cc(=O)oc2cc(NC(=O)[C@H](CCCNC(=N)N)NC(=O)[C@H](CCCNC(=N)N)NC(=O)[C@H](CCC(=O)O)NC(=O)OC(C)(C)C)ccc12 [Boc-Glu-Arg-Arg-AMC] (Boc-Glu-Arg-Arg-{AMC}) | 0 | 3.7 | 
7 | Cc1cc(=O)oc2cc(NC(=O)[C@H](CCCCN)NC(=O)[C@H](CCCCN)NC(=O)[C@@H](N)CCC(=O)O)ccc12 [Glu-Lys-Lys-AMC] (H-Glu-Lys-Lys-{AMC}) | 0 | 0.62 | 
8 | Glycine-Glycine-Arginine-Tyrosine [Gly--Gly--Arg--Tyr*] |  |  | Cleavage Rates Released Group, Urokinase (urokinase [3]): .01 nM/min; Cleavage Rates Released Group, Trypsin (trypsin [4]): 4 nM/min
9 | PGRVVGY [Pro--Gly--Arg--Val--Val--Gly--Tyr*, plasminogen analog] |  |  | Cleavage Rates Released Group, Urokinase (urokinase [3]): .01 nM/min; Cleavage Rates Released Group, Trypsin (trypsin [4]): 3 nM/min
10 | Cc1cc(=O)oc2cc(NC(=O)[C@H](CCCNC(=N)N)NC(=O)CNC(=O)[C@H](CC(C)C)NC(=O)OC(C)(C)C)ccc12 [Boc-Leu-Gly-Arg-AMC, Boc-leu-gly-arg-7-amino-4-methylcoumarin] (Boc-Leu-Gly-Arg-{AMC}) | 3.7 | 750 | 
11 | Cc1cc(=O)oc2cc(NC(=O)[C@H](CCCNC(=N)N)NC(=O)[C@H](CO)NC(=O)[C@H](Cc3ccccc3)NC(=O)OC(C)(C)C)ccc12 [Boc-Phe-Ser-Arg-AMC] (Boc-Phe-Ser-Arg-{AMC}) | 0.044 | 17 | 
